Assays:
[1] = target: PHD2 enzyme (residues 181-417) (Homo sapiens (Human), UniProt Q9GZT9); assay: Inhibition of PHD enzyme (LC/MS peptide hydroxylation assay); assay type: biochemical; details: PHD2 (residues 181-417) 5 nM, 60 min pre-incubation; -log(IC50), IC50 molar
Outline: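 Hydroxylated peptide quantified by LC/MS after 60 min turnover of 1 uM biotinylated peptide with 2 uM 2-oxoglutarate and 1 mM ascorbate, stopped by excess tight-binding inhibitor. Beforehand, 5 nM enzyme and compound were preincubated 60 min at RT, pH 7.3 HEPES/KCl/TCEP/FeCl2/BSA buffer. Values as pIC50 (−log molar IC50).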

[2] = test system: HIF1a protein in H9c2 rat cardiomyocytes; assay: Cell-based HIF-alpha stabilization assay (inhibition of PHD in cells); details: 24 hrs compound incubation, HIF1a protein by ELISA; for EC50: Rattus norvegicus, H9c2, 24 h, read-out: Inhibition of PHD in cells (pEC50) (converted)
Outline: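 HIF1a stabilization was measured by ELISA on lysates of H9c2 rat cardiomyocytes after 24 h exposure to 11 serial compound concentrations, expressed relative to the desferrioxamine maximum. Curve fits gave EC50. EC50pos denotes the concentration producing half the desferrioxamine maximal response.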

Sequence of PHD2 enzyme (residues 181-417) (Q9GZT9 181-417): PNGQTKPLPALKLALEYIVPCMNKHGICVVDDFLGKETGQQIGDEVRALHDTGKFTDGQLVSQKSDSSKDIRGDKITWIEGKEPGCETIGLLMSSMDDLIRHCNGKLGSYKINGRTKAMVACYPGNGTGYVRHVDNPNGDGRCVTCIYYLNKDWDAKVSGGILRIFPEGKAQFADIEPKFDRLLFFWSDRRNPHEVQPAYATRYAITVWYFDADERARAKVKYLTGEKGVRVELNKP

PHD Inhibition (pIC50) [1]	SMILES	EC50 [2]	Inhibition of PHD in cells (pEC50) [2]
7.75	Cc1cc(C#N)ccc1-c1cnn(-c2ccc(C(=O)N3CCC4(CCN(C)C4)C3)cn2)c1O (centres unmarked) [Example 346, 4-(5-hydroxy-1-(5-(7-methyl-2,7-diazaspiro[4.4]nonane-2-carbonyl)pyridin-2-yl)-1H-pyrazol-4-yl)-3-methylbenzonitrile]	372 nM	–
8.09	Cc1cc(C#N)ccc1-c1cnn(-c2ccc(C(=O)N3CCC[C@@H](N(C)C)C3)cn2)c1O [Example 315, (R)-4-(1-(5-(3-(dimethylamino)piperidine-1-carbonyl)pyridin-2-yl)-5-hydroxy-1H-pyrazol-4-yl)-3-methylbenzonitrile]	562 nM	–
8.29	CCN1CCN(C(=O)c2ccc(-n3ncc(-c4cc(F)c(C#N)cc4C)c3O)nc2)CC1 [Example 306, 4-(1-(5-(4-ethylpiperazine-1-carbonyl)pyridin-2-yl)-5-hydroxy-1H-pyrazol-4-yl)-2-fluoro-5-methylbenzonitrile]	4570 nM	–
8.17	CCN(CC)C1CCCN(C(=O)c2ccc(-n3ncc(-c4ccc(C#N)cc4C)c3O)nc2)C1 (centres unmarked) [Example 380, 4-(1-(5-(3-(diethylamino)piperidine-1-carbonyl)pyridin-2-yl)-5-hydroxy-1H-pyrazol-4-yl)-3-methylbenzonitrile]	575 nM	–
8.47	Cc1c(-c2cnn(-c3ccc(C(=O)N4CCOCC4)cn3)c2O)ccc(C#N)c1F [Example 327, 2-fluoro-4-(5-hydroxy-1-(5-(morpholine-4-carbonyl)pyridin-2-yl)-1H-pyrazol-4-yl)-3-methylbenzonitrile]	589 nM	–
8.17	Cc1c(-c2cnn(-c3ccc(C(=O)N4CCC[C@@H](N(C)C)C4)cn3)c2O)ccc(C#N)c1F [Example 319, (R)-4-(1-(5-(3-(dimethylamino)piperidine-1-carbonyl)pyridin-2-yl)-5-hydroxy-1H-pyrazol-4-yl)-2-fluoro-3-methylbenzonitrile]	537 nM	–
8.46	COCC[C@@H](C)NC(=O)c1ccc(-n2ncc(-c3ccc(C#N)cc3)c2O)nc1 [Example 357, (R)-6-(4-(4-cyanophenyl)-5-hydroxy-1H-pyrazol-1-yl)-N-(4-methoxybutan-2-yl)nicotinamide]	2400 nM	–

The remaining lines, values behind:

SMILES	PHD Inhibition (pIC50) [1]	EC50 [2]	Inhibition of PHD in cells (pEC50) [2]
C[C@@H](NC(=O)c1ccc(-n2ncc(-c3ccc(C#N)cc3)c2O)nc1)C(F)(F)F [Example 170, (R)-6-(4-(4-cyanophenyl)-5-hydroxy-1H-pyrazol-1-yl)-N-(1,1,1-trifluoropropan-2-yl)nicotinamide]	7.29	2750 nM	–
CN(CCCN1CCCCC1)C(=O)c1ccc(-n2ncc(-c3ccc(C#N)cc3)c2O)nc1 [Example 304, 6-(4-(4-cyanophenyl)-5-hydroxy-1H-pyrazol-1-yl)-N-methyl-N-(3-(piperidin-1-yl)propyl)nicotinamide]	7.23	2820 nM	–
COCCC1(NC(=O)c2ccc(-n3ncc(-c4ccc(C#N)cc4)c3O)nc2)CC1 [Example 208, 6-(4-(4-cyanophenyl)-5-hydroxy-1H-pyrazol-1-yl)-N-(1-(2-methoxyethyl)cyclopropyl)nicotinamide]	7.8	269 nM	–
CN1CCC(NC(=O)c2ccc(-n3ncc(-c4ccc(C#N)cc4)c3O)nc2)CC1 [Example 270, 6-(4-(4-cyanophenyl)-5-hydroxy-1H-pyrazol-1-yl)-N-(1-methylpiperidin-4-yl)nicotinamide]	7.34	1000 nM	–
COc1cc(C#N)ccc1-c1cnn(-c2ccc(C(=O)N[C@H]3CC[C@@H](OC)CC3)cn2)c1O [Example 230, 6-(4-(4-cyano-2-methoxyphenyl)-5-hydroxy-1H-pyrazol-1-yl)-N-((1s,4s)-4-methoxycyclohexyl)nicotinamide]	6.83	407 nM	–
N#Cc1ccc(-c2cnn(-c3ccc(C(=O)NCC4CC(F)(F)C4)cn3)c2O)cc1 [Example 264, 6-(4-(4-cyanophenyl)-5-hydroxy-1H-pyrazol-1-yl)-N-((3,3-difluorocyclobutyl)methyl)nicotinamide]	6.99	1620 nM	–
N#Cc1ccc(-c2cnn(-c3ccc(C(=O)NCCOC(F)(F)F)cn3)c2O)cc1 [Example 236, 6-(4-(4-cyanophenyl)-5-hydroxy-1H-pyrazol-1-yl)-N-(2-(trifluoromethoxy)ethyl)nicotinamide]	7.51	589 nM	–
COCC(C)(C)NC(=O)c1ccc(-n2ncc(-c3ccc(C#N)cc3C)c2O)nc1 [Example 65, 6-(4-(4-cyano-2-methylphenyl)-5-hydroxy-1H-pyrazol-1-yl)-N-(1-methoxy-2-methylpropan-2-yl)nicotinamide]	7.08	182 nM	–
COc1cc(-c2cnn(-c3ccc(C(=O)NC(C)C)cn3)c2O)ccn1 [Example 5, 6-(5-hydroxy-4-(2-methoxypyridin-4-yl)-1H-pyrazol-1-yl)-N-isopropylnicotinamide]	7.01	562 nM	–
COc1cc(-c2cnn(-c3ccc(C(=O)NCCCn4ccnc4)cn3)c2O)ccn1 [Example 35, N-(3-(1H-imidazol-1-yl)propyl)-6-(5-hydroxy-4-(2-methoxypyridin-4-yl)-1H-pyrazol-1-yl)nicotinamide]	7.8	–	5.50
Cc1cc(C#N)ccc1-c1cnn(-c2ccc(C(=O)N(C)C)cn2)c1O [Example 301, 6-(4-(4-cyano-2-methylphenyl)-5-hydroxy-1H-pyrazol-1-yl)-N,N-dimethylnicotinamide]	8.67	251 nM	–
CNC(=O)c1ccc(-n2ncc(-c3ccnc(OC)c3)c2O)nc1 [Example 40, 6-(5-hydroxy-4-(2-methoxypyridin-4-yl)-1H-pyrazol-1-yl)-N-methylnicotinamide]	7.9	977 nM	–
CC(NC(=O)c1ccc(-n2ncc(-c3ccc(C#N)cc3)c2O)nc1)C1CCCO1 (centres unmarked) [Example 113, 6-(4-(4-cyanophenyl)-5-hydroxy-1H-pyrazol-1-yl)-N-(1-(tetrahydrofuran-2-yl)ethyl)nicotinamide]	7.22	1380 nM	–
CN(C)CCCNC(=O)c1ccc(-n2ncc(-c3ccc(C#N)cc3)c2O)nc1 [Example 269, 6-(4-(4-cyanophenyl)-5-hydroxy-1H-pyrazol-1-yl)-N-(3-(dimethylamino)propyl)nicotinamide]	6.82	1950 nM	–
COCC(C)(C)NC(=O)c1ccc(-n2ncc(-c3ccc(C#N)cc3)c2O)nc1 [Example 200, 6-(4-(4-cyanophenyl)-5-hydroxy-1H-pyrazol-1-yl)-N-(1-methoxy-2-methylpropan-2-yl)nicotinamide]	7.09	1100 nM	–

— patent US10407409B2, “6-(5-hydroxy-1H-pyrazol-1-yl)nicotinamide inhibitors of PHD” (Takeda Pharmaceutical Company Limited, priority 2013, dated 2019)
